≈ marks a conversion by molar mass, not a printed value.

Common to all, as to format: functional
For one assay, the system named is Staphylococcus aureus. The assay can be described thus: Antibacterial activity against Staphylococcus aureus CMCC 26003 after 24 hrs by agar dilution method. As to conditions: CMCC 26003, 24 h. In general terms: Agar dilution tests growth on a series of plates holding different concentrations.
Another assay deals with Escherichia coli. The assay can be described thus: Antibacterial activity against Escherichia coli CMCC 44103 after 24 hrs by agar dilution method. Particulars: CMCC 44103, 24 h.
A further assay has as its system Pseudomonas aeruginosa. In words: Antibacterial activity against Pseudomonas aeruginosa CMCC 10104 after 24 hrs by agar dilution method. As to conditions: CMCC 10104, 24 h.

As usually defined, the MIC is the lowest concentration found to suppress growth. As to `CCn1cc(C(=O)O)c(=O)c2cc(F)c(NC(=O)[C@H]3CC[C@H](COc4c(C)cccc4C)CC3)c(F)c21`, the MIC against Staphylococcus aureus, in the assay with Escherichia coli and in the assay on Pseudomonas aeruginosa was above 32 µg/mL in each case.
Take `COc1c(NC(=O)[C@H]2CC[C@@H](COc3c(C)cccc3C)CC2)c(F)cc2c(=O)c(C(=O)O)cn(C3CC3)c12`: the MIC against Staphylococcus aureus, in the assay with Escherichia coli and against Pseudomonas aeruginosa was above 32 µg/mL each time.
On to `COc1c(NC(=O)[C@H]2CC[C@@H](COc3ccc([N+](=O)[O-])cc3)CC2)c(F)cc2c(=O)c(C(=O)O)cn(C3CC3)c12`, for which the MIC against Staphylococcus aureus is 1 µg/mL (≈ 1.81 µM); against Escherichia coli it was 0.25 µg/mL (≈ 0.452 µM); with Pseudomonas aeruginosa it was 2 µg/mL (≈ 3.61 µM).
In the same order, the values of `C[C@H]1COc2c(NC(=O)[C@H]3CC[C@H](COc4ccc([N+](=O)[O-])cc4)CC3)c(F)cc3c(=O)c(C(=O)O)cn1c23` are above 32 µg/mL, above 32 µg/mL and above 32 µg/mL.
On to `C[C@H]1COc2c(NC(=O)[C@H]3CC[C@H](COc4ccccc4)CC3)c(F)cc3c(=O)c(C(=O)O)cn1c23`, for which the minimal inhibitory concentration (MIC) in the assay on Staphylococcus aureus is above 32 µg/mL; against Escherichia coli, 16 µg/mL (≈ 32.4 µM); in the assay on Pseudomonas aeruginosa, above 32 µg/mL.
Take `CCn1cc(C(=O)O)c(=O)c2cc(F)c(NC(=O)[C@H]3CC[C@@H](COc4ccccc4)CC3)c(F)c21`: the MIC in the assay with Staphylococcus aureus, with Escherichia coli and in the assay on Pseudomonas aeruginosa was above 32 µg/mL each time.
For `C[C@H]1COc2c(NC(=O)[C@H]3CC[C@H](COc4cccc(F)c4F)CC3)c(F)cc3c(=O)c(C(=O)O)cn1c23`, the MIC is 32 µg/mL (≈ 60.3 µM) in the assay with Staphylococcus aureus, above 32 µg/mL against Escherichia coli and above 32 µg/mL against Pseudomonas aeruginosa.
As for `CCn1cc(C(=O)O)c(=O)c2cc(F)c(NC(=O)[C@H]3CC[C@@H](COc4c(C)cccc4C)CC3)c(F)c21`, the MIC in the assay with Staphylococcus aureus, in the assay with Escherichia coli and in the assay on Pseudomonas aeruginosa was above 32 µg/mL throughout.
In the case of `CCn1cc(C(=O)O)c(=O)c2cc(F)c(NC(=O)[C@H]3CC[C@H](COc4ccccc4)CC3)c(F)c21`, the MIC with Staphylococcus aureus, in the assay on Escherichia coli and against Pseudomonas aeruginosa was above 32 µg/mL each time.
Turning to `C[C@H]1COc2c(NC(=O)[C@H]3CC[C@@H](COc4ccccc4)CC3)c(F)cc3c(=O)c(C(=O)O)cn1c23`, the figures for the MIC in the assay with Staphylococcus aureus, against Escherichia coli and in the assay with Pseudomonas aeruginosa were above 32 µg/mL, 8 µg/mL (≈ 16.2 µM) and above 32 µg/mL, respectively.
Consider `COc1c(NC(=O)[C@H]2CC[C@H](COc3cccc(F)c3F)CC2)c(F)cc2c(=O)c(C(=O)O)cn(C3CC3)c12`, for which the MIC against Staphylococcus aureus, in the assay on Escherichia coli and with Pseudomonas aeruginosa was above 32 µg/mL throughout.
Take `CCn1cc(C(=O)O)c(=O)c2cc(F)c(NC(=O)[C@H]3CC[C@@H](COc4cccc(F)c4F)CC3)c(F)c21`: the MIC with Staphylococcus aureus, in the assay with Escherichia coli and with Pseudomonas aeruginosa was above 32 µg/mL in each case.
For the compound `Cc1cccc(C)c1OC[C@H]1CC[C@@H](C(=O)Nc2c(F)cc3c(=O)c(C(=O)O)cn4c3c2OC[C@@H]4C)CC1`, the MIC against Staphylococcus aureus, in the assay with Escherichia coli and against Pseudomonas aeruginosa was above 32 µg/mL in each case.
Consider `COc1c(NC(=O)[C@H]2CC[C@@H](COc3cccc(F)c3F)CC2)c(F)cc2c(=O)c(C(=O)O)cn(C3CC3)c12`, for which the MIC with Staphylococcus aureus, against Escherichia coli and in the assay on Pseudomonas aeruginosa was above 32 µg/mL throughout.
Regarding `COc1c(NC(=O)[C@H]2CC[C@H](COc3ccccc3)CC2)c(F)cc2c(=O)c(C(=O)O)cn(C3CC3)c12`, the MIC in the assay with Staphylococcus aureus, with Escherichia coli and in the assay with Pseudomonas aeruginosa was above 32 µg/mL each time.
`CCn1cc(C(=O)O)c(=O)c2cc(F)c(NC(=O)[C@H]3CC[C@H](COc4cccc(F)c4F)CC3)c(F)c21`: the MIC against Staphylococcus aureus, against Escherichia coli and against Pseudomonas aeruginosa was above 32 µg/mL each time.
On to `Cc1cccc(C)c1OC[C@H]1CC[C@H](C(=O)Nc2c(F)cc3c(=O)c(C(=O)O)cn4c3c2OC[C@@H]4C)CC1`, for which the minimal inhibitory concentration (MIC) with Staphylococcus aureus, in the assay on Escherichia coli and with Pseudomonas aeruginosa was above 32 µg/mL in each case.
As for `COc1c(NC(=O)[C@H]2CC[C@H](COc3ccc([N+](=O)[O-])cc3)CC2)c(F)cc2c(=O)c(C(=O)O)cn(C3CC3)c12`, the MIC in the assay with Staphylococcus aureus, with Escherichia coli and in the assay on Pseudomonas aeruginosa was above 32 µg/mL throughout.
For the compound `CCn1cc(C(=O)O)c(=O)c2cc(F)c(N3CCNC(C)C3)c(F)c21` (stereo not given) [LOMEFLOXACIN], the MIC with Staphylococcus aureus stood at 4 µg/mL (≈ 11.4 µM); against Escherichia coli, 2 µg/mL (≈ 5.69 µM); with Pseudomonas aeruginosa, 8 µg/mL (≈ 22.8 µM).
In the same order, the values of `C[C@H]1COc2c(NC(=O)[C@H]3CC[C@@H](COc4ccc([N+](=O)[O-])cc4)CC3)c(F)cc3c(=O)c(C(=O)O)cn1c23` are above 32 µg/mL, above 32 µg/mL and above 32 µg/mL.
As for `COc1c(NC(=O)[C@H]2CC[C@@H](COc3ccccc3)CC2)c(F)cc2c(=O)c(C(=O)O)cn(C3CC3)c12`, the MIC was 4 µg/mL (≈ 7.87 µM) in the assay on Staphylococcus aureus, above 32 µg/mL with Escherichia coli and above 32 µg/mL in the assay with Pseudomonas aeruginosa.
On to `CCn1cc(C(=O)O)c(=O)c2cc(F)c(NC(=O)[C@H]3CC[C@H](COc4ccc([N+](=O)[O-])cc4)CC3)c(F)c21`, for which the MIC against Staphylococcus aureus, against Escherichia coli and against Pseudomonas aeruginosa was above 32 µg/mL each time.
For the compound `COc1c(NC(=O)[C@H]2CC[C@H](COc3c(C)cccc3C)CC2)c(F)cc2c(=O)c(C(=O)O)cn(C3CC3)c12`, the MIC with Staphylococcus aureus, against Escherichia coli and with Pseudomonas aeruginosa was above 32 µg/mL throughout.
Turning to `CCn1cc(C(=O)O)c(=O)c2cc(F)c(NC(=O)[C@H]3CC[C@@H](COc4ccc([N+](=O)[O-])cc4)CC3)c(F)c21`, the MIC against Staphylococcus aureus is 4 µg/mL (≈ 7.55 µM); against Escherichia coli, above 32 µg/mL; in the assay with Pseudomonas aeruginosa, above 32 µg/mL.
In the case of `C[C@H]1COc2c(NC(=O)[C@H]3CC[C@@H](COc4cccc(F)c4F)CC3)c(F)cc3c(=O)c(C(=O)O)cn1c23`, the minimal inhibitory concentration (MIC) against Staphylococcus aureus was 2 µg/mL (≈ 3.77 µM); in the assay with Escherichia coli, above 32 µg/mL; in the assay with Pseudomonas aeruginosa, 1 µg/mL (≈ 1.89 µM).

The values are drawn from ChEMBL document CHEMBL2203195, “Synthesis and antibacterial activity of new fluoroquinolones containing a cis- or trans-cyclohexane moiety” (2012).
